The record followed here is US20230271933A1, “HETEROCYCLIC IMMUNOMODULATOR” (Beijing Innocare Pharma Tech Co., Ltd., priority 2020, published 2023).

The test system of data set [1] is IL-2. Description: Stimulation of IL-2 secretion in anti-CD3-stimulated hPBMC (ELISA). The data set is classed as cell-based, human. The following applies: anti-CD3 antibody, 72 hours. The procedure: (§1) The immunomodulatory function of the compound of the present invention was evaluated by detecting its effect on the secretion amount of TNFα and IL-2 in cells from the human peripheral blood mononuclear cells (hPBMC) by the enzyme linked immunosorbent assay (ELISA) method.
(§2) The peripheral blood of healthy volunteers was collected by using EDTA anticoagulant tubes, and diluted with phosphate buffered saline (PBS) containing 2% fetal bovine serum (Gibco, Cat. No. 10099-141) in an equal volume ratio. 30 mL of the resulting diluted sample was transferred into a Sepmate-50 centrifuge tube (Stemcell, Cat. No. 86450) to which 15 mL of a density-gradient centrifugation liquid (Sigma, Cat. No. 10771) had been added in advance, and centrifuged at room temperature at 1200×g for 10 minutes. The liquid containing PBMC in the upper layer was transferred to a new 50-mL centrifuge tube, and centrifuged at room temperature at 300×g for 8 minutes. The supernatant was discarded, and the resulting PBMC was resuspended to 5×10^6/mL by using RPMI 1640 medium (Gibco, Cat. No. 72400-047). 80 μL of the resulting suspension was added to each well in a 96-well plate.
(§3) Each concentration was further diluted 50-fold with RPMI 1640 medium. 10 μL of each compound solution was added into the cells in the above 96-well plate. The 96-well plate was placed in an incubator, and the cells were cultured at 37° C. and 5% CO2 for 1 hour. 10 μL of LPS (Sigma, Cat. No. L-2880) with a concentration of 100 ng/mL was added, and the cells were continuously cultured in the incubator at 37° C. and 5% CO2 overnight. Supernatants were collected for the detection of TNFα.
The above-mentioned 96-well plate can also be placed in an incubator, and the cells were cultured at 37° C. and 5% CO2 for 1 hour. 10 μL of anti-CD3 antibody (Thermo Fisher, Cat. No. 14-0037-82) with a concentration of 500 ng/mL was added, and the cells were continuously cultured in the incubator at 37° C. and 5% CO2 for 72 hours. Supernatants were collected for the detection of IL-2.
(§4) TNFα and IL-2 were detected respectively according to each instruction of the ELISA kits (R&D, Cat. No. DY210 and DY202, respectively) to obtain the OD450 values for each well. The group containing 0.2% DMSO medium was used as 0% inhibition or stimulation. The XLfit software was used to plot the compound inhibition or stimulation curve and calculate the corresponding IC50 or EC50.
On the technique in general: An ELISA detects its analyte on a solid surface through an enzyme-linked reagent.

In data set [2] the test system is NCI-H929 human myeloma cells. Description: Inhibition of the proliferation of NCI-H929 cells (luminescent cell viability, CTG). The data set is classed as cell-based. Conditions: 6 days, CellTiter-Glo. The procedure:
The effect of the compounds of the present invention on the proliferation of NCI-H929 human myeloma cells was evaluated by using a luminescent cell viability test experiment.
The compound was dissolved and diluted to 5 mM in DMSO, and then serially diluted 4-fold in DMSO to a minimum concentration of 0.31 μM. Each concentration was further diluted 50-fold with RPMI 1640 medium (Thermo Fisher, Cat. No. 72400-047). If the IC50 value of the compound was relatively low, the initial concentration of the compound could be lowered.
NCI-H929 cells (Nanjing Cobioer, Cat. No. CBP60243) were cultured in RPMI 1640 complete medium [containing 10% FBS (GIBCO, Cat. No. 10099-141) and 100 units/mL penicillin-streptomycin (Thermo Fisher, Cat. No. 15140122)]. Cells (15000 cells/mL) were plated in 90 μL of the complete medium in a 96-well plate and cultured overnight, and then 10 μL of the compound solution was added into each well. The cells were cultured in an incubator at 37° C. and 5% CO2 for 6 days. Then the cell culture plate was taken out and balanced to room temperature according to the instruction of the CellTilter-Glo (CTG) kit (Promega, Cat. No. G7572). 50 μL CTG reagent was added for complete lysis, the plate was placed at room temperature for 10 minutes, and the luminescence signal was read with a microplate reader (EnVision, Perkin Elmer). The group containing 0.2% DMSO medium was used as 0% inhibition. The XLfit software was used to plot the compound inhibition curve and calculate the inhibitory IC50 value.
For orientation: ATP-based viability assays read luminescence as a measure of living cells.

The subject of data set [3] is TNFα. Description: Inhibition of TNFα secretion in LPS-stimulated hPBMC (ELISA). Conditions: Homo sapiens, overnight, read-out: IC50 (nM) for the inhibition of the TNFa secretion. It counts as cell-based. As to the method:
as §1, §2, §3, §4

Data set [4] can be described thus: In vivo pharmacokinetic experiment in rats. The following applies: male Sprague-Dawley rats, n = 3; for F: PO 5 mpk vs IV 1 mpk; for clearance / Vd / AUC(0-t) / Cmax: rat, plasma; for clearance / Vd: 1 mg/kg, IV 1 mpk; for Vd: read-out: VSS; for AUC(0-t) / Cmax: 5 mg/kg, PO 5 mpk. The procedure:
The compound to be tested was dissolved in 5% DMA+20% Solutol+75% Saline vehicle to prepare a 0.5 mg/mL administration solution.
2 mL/kg of the administration solution was administered through the intravenous injection (IV) at a dose of 1 mg/kg to three fed male Sprague-Dawley rats, respectively. Blood samples were collected at 0.083, 0.25, 0.5, 1, 2, 4, 8 and 24 hours after administration. 10 mL/kg of the administration solution was administered by gavage (PO) at a dose of 5 mg/kg to other three fed male Sprague-Dawley rats, respectively. Blood samples were collected at 0.25, 0.5, 1, 2, 4, 8 and 24 hours after administration.
The concentration of the compound to be tested in plasma was obtained with the LC-MS/MS quantitative analysis with an API-4500 mass spectrometer, and the limit of quantitation (LOQ) for the plasma was 1 ng/mL.

For orientation: EC50 means the concentration needed to bring the measured effect to its halfway point. In general, IC50 refers to the concentration needed to halve the response being measured. The compound `CC(c1ccc(COc2cccc3c2CN([C@H]2CCC(=O)NC2=O)C3=O)cc1)N1CC2CC1CO2` (single isomer, unassigned) [Compound 18] yielded an EC50 in data set [1] (Homo sapiens) of 11 nM. In data set [2] (Homo sapiens, NCI-H929, 144 h), this compound returned an IC50 of 3.1 nM.

As for `CC(c1ccc(COc2cccc3c2CN([C@H]2CCC(=O)NC2=O)C3=O)cc1)N1CC2CC1CO2` (single isomer, unassigned) [Compound 19], the IC50 in data set [3] came out at 0.8 nM; in data set [2], 3.8 nM. In data set [1], this compound registered an EC50 of 11 nM.

For `CC(c1ccc(COc2cccc3c2CN(C2CCC(=O)NC2=O)C3=O)cc1)N1CCOCC1` (stereo not shown) [Compound 1, 3-(4-((4-(1-morpholinoethyl)benzyl)oxy)-1-oxoisoindolin-2-yl)piperidine-2,6-dione], in data set [2] (Homo sapiens, NCI-H929, 144 h), the IC50 stood at 7.7 nM.

Regarding `O=C1CCC(N2Cc3c(OCc4ccc(C5(N6CCOCC6)CC5)cc4)cccc3C2=O)C(=O)N1` (stereo not shown) [Compound 2, 3-(4-((4-(1-morpholinocyclopropyl)benzyl)oxy)-1-oxoisoindolin-2-yl)piperidine-2,6-dione], the IC50 in data set [3] came to 7.8 nM; in data set [2] (Homo sapiens, NCI-H929, 144 h), 35 nM. Besides, it took 10 nM to reach a half-maximal effect in data set [1] (Homo sapiens) (EC50).

Usually clearance stands for the rate of elimination divided by the concentration. Broadly, the AUC(0-t) is the area under the concentration-time curve up to a stated or last time point. Lower therefore signals less exposure. One may read the Cmax as the highest concentration seen after dosing. Take `C[C@H](c1ccc(COc2cccc3c2CN(C2CCC(=O)NC2=O)C3=O)cc1)N1CCOCC1` (stereo partly drawn) [Compound 3, 3-(4-((4-((R)-1-morpholinoethyl)benzyl)oxy)-1-oxoisoindolin-2-yl)piperidine-2,6-dione]: in data set [4], the F turned out to be 20%, the clearance was determined as 61 mL/min/kg, the Vd turned out to be 4.2 L/kg and the AUC(0-t) was 270 ng·h/mL. This compound displayed a Cmax in data set [4] of 105 ng/mL. The IC50 in data set [3] was found to be 1.1 nM. In data set [1] (Homo sapiens), this compound registered an EC50 of 8 nM. Half-maximal inhibition in data set [2] (Homo sapiens, NCI-H929, 144 h) (IC50) required 7 nM.

For the compound `C[C@@H](c1ccc(COc2cccc3c2CN(C2CCC(=O)NC2=O)C3=O)cc1)N1CCOCC1` (stereo partly drawn) [Compound 4, 3-(4-((4-((S)-1-morpholinoethyl)-benzyl)oxy)-1-oxoisoindolin-2-yl)piperidine-2,6-dione], the IC50 in data set [3] is 0.9 nM; in data set [2] (Homo sapiens, NCI-H929, 144 h) it was 5 nM. Further, the EC50 in data set [1] (Homo sapiens) came out at 4.1 nM.

For the compound `CC(C)(c1ccc(COc2cccc3c2CN([C@H]2CCC(=O)NC2=O)C3=O)cc1)N1CCOCC1` [Compound 5, (S)-3-(4-((4-(2-morpholinopropan-2-yl)benzyl)oxy)-1-oxoisoindolin-2-yl)piperidine-2,6-dione], in data set [4], the F is 4%, the clearance worked out at 110 mL/min/kg, the Vd was 3.3 L/kg and the AUC(0-t) amounted to 8.8 ng·h/mL. For the same compound, in data set [4], the Cmax stood at 1.6 ng/mL. Further, in data set [2] (Homo sapiens, NCI-H929, 144 h), the IC50 amounted to 7.8 nM.

The compound `CC(C)(c1ccc(COc2cccc3c2CN([C@H]2CCC(=O)NC2=O)C3=O)cc1)N1CCN(c2ccc(C#N)cc2F)CC1` [Compound 8, (S)-4-(4-(2-(4-(((2-(2,6-dioxopiperidin-3-yl)-1-oxoisoindolin-4-yl)oxy)methyl)phenyl)-prop-2-yl)piperazin-1-yl)-3-fluorobenzonitrile] showed an EC50 in data set [1] (Homo sapiens) of 4 nM. This compound also had a half-maximal inhibitory concentration (IC50) in data set [2] (Homo sapiens, NCI-H929, 144 h) of 0.5 nM.

Compound `N#Cc1ccc(N2CCN(C3(c4ccc(COc5cccc6c5CN([C@H]5CCC(=O)NC5=O)C6=O)cc4)CC3)CC2)c(F)c1` [Compound 9, (S)-4-(4-(1-(4-(((2-(2,6-dioxopiperidin-3-yl)-1-oxoisoindolin-4-yl)oxy)methyl)phenyl)-cyclopropyl)piperazin-1-yl)-3-fluorobenzonitrile] displayed an IC50 in data set [2] (Homo sapiens, NCI-H929, 144 h) of 1.1 nM.

For `N#CC(c1ccc(COc2cccc3c2CN([C@H]2CCC(=O)NC2=O)C3=O)cc1)N1CCOCC1` (stereo partly drawn) [Compound 10, 2-(4-(((2-((S)-2,6-dioxopiperidin-3-yl)-1-oxoisoindolin-4-yl)oxy)methyl)phenyl)-2-morpholinoacetonitrile], the IC50 was 2.1 nM in data set [3] and 11 nM in data set [2] (Homo sapiens, NCI-H929, 144 h). In data set [1] (Homo sapiens), this compound showed a half-maximal effective concentration (EC50) of 46 nM.

The compound `C[C@H](c1ccc(COc2cccc3c2CN([C@H]2CCC(=O)NC2=O)C3=O)cc1)N1CCN(C(=O)C2CC2)CC1` [Compound 11, (S)-3-(4-((4-((R)-1-(4-(cyclopropanecarbonyl)piperazin-1-yl)ethyl)benzyl)oxy)-1-oxoisoindolin-2-yl)piperidine-2,6-dione] gave an IC50 in data set [2] (Homo sapiens, NCI-H929, 144 h) of 2.2 nM.

For the compound `C[C@H](c1ccc(COc2cccc3c2CN([C@H]2CCC(=O)NC2=O)C3=O)cc1)N1CCN(C2CC2)CC1` [Compound 12, (S)-3-(4-((4-((R)-1-(4-cyclopropylpiperazin-1-yl)ethyl)benzyl)oxy)-1-oxoisoindolin-2-yl)piperidine-2,6-dione], the IC50 in data set [2] (Homo sapiens, NCI-H929, 144 h) amounted to 0.3 nM.

`C[C@H](c1ccc(COc2cccc3c2CN([C@H]2CCC(=O)NC2=O)C3=O)cc1)N1CCN(S(C)(=O)=O)CC1` [Compound 13, (S)-3-(4-((4-((R)-1-(4-(methylsulfonyl)piperazin-1-yl)ethyl)benzyl)oxy)-1-oxoisoindolin-2-yl)piperidine-2,6-dione] displayed an IC50 in data set [2] (Homo sapiens, NCI-H929, 144 h) of 1.2 nM.

Consider `C[C@H](c1ccc(COc2cccc3c2CN([C@H]2CCC(=O)NC2=O)C3=O)cc1)N1CCN(C)CC1` [Compound 14, (S)-3-(4-((4-((R)-1-(4-methylpiperazin-1-yl)ethyl)benzyl)oxy)-1-oxoisoindolin-2-yl)piperidine-2,6-dione], for which, in data set [2] (Homo sapiens, NCI-H929, 144 h), the IC50 is 1.4 nM.

As for `C[C@H](c1ccc(COc2cccc3c2CN([C@H]2CCC(=O)NC2=O)C3=O)cc1)N1CCN(c2ccncn2)CC1` [Compound 15, (S)-3-(1-oxo-4-((4-((R)-1-(4-(pyrimidin-4-yl)piperazin-1-yl)ethyl)benzyl)oxy)isoindolin-2-yl)piperidine-2,6-dione], the IC50 in data set [3] is 1.7 nM; in data set [2] (Homo sapiens, NCI-H929, 144 h) it was 0.4 nM. For the same compound, the response in data set [1] (Homo sapiens) was half-maximal at 19 nM (EC50).

In the case of `C[C@H](c1ccc(COc2cccc3c2CN([C@H]2CCC(=O)NC2=O)C3=O)cc1)N1CCN(c2ccc(F)cc2F)CC1` [Compound 17, (S)-3-(4-((4-((R)-1-(4-(2,4-difluorophenyl)piperazin-1-yl)ethyl)benzyl)oxy)-1-oxoisoindolin-2-yl)piperidine-2,6-dione], the IC50 is 3.7 nM in data set [3] and 0.3 nM in data set [2] (Homo sapiens, NCI-H929, 144 h).

Compound `C[C@H](c1ccc(COc2cccc3c2CN([C@H]2CCC(=O)NC2=O)C3=O)cc1)N1CCN(c2ccncc2F)CC1` [Compound 20, (S)-3-(4-((4-((R)-1-(4-(3-fluoropyridin-4-yl)piperazin-1-yl)ethyl)benzyl)oxy)-1-oxoisoindolin-2-yl)piperidine-2,6-dione] displayed an EC50 in data set [1] (Homo sapiens) of 1.9 nM. Moreover, in data set [2] (Homo sapiens, NCI-H929, 144 h), half-maximal inhibition (IC50) required 0.1 nM.
